According to PMC10865344, “Self-Assembly and Antimicrobial Activity of Lipopeptides Containing Lysine-Rich Tripeptides” (Biomacromolecules, 2024):
≈ marks a conversion by molar mass, not a printed value. Where a SMILES comes first, the peptide text is derived from it. [ ]: non-standard residue; d: D form. The star is where a group is joined. Palmitoyl = CCCCCCCCCCCCCCCC(=O)*

Columns and labels:
[1] = test system: L929 murine fibroblast cell lines; settings: 48 h, 0.05 wt %
Protocol: L929 murine fibroblast cell lines (ECACC General Cell Collection) were grown in Dulbecco’s modified Eagle’s medium (DMEM) supplemented with 10% fetal bovine serum (FBS), 20 mM HEPES, and 1% GlutaMAX. The cells were maintained at pH 7.4, 37 °C, and 5% CO2 in 25 cm^2 cell culture flasks.
For the cytotoxicity assay, approximately 6000 cells per well were seeded in 96-well plates. The medium was exchanged after 24 h by adding solutions of different concentrations of the lipopeptides ranging from 0.05 to 0.0001 wt %. After 48 h of treatment, cell viability was assessed using an MTT [3-(4, 5-dimethylthiazolyl-2)-2, 5-diphenyltetrazolium bromide] assay. Here, the culture medium was removed, followed by the addition of a solution of MTT in DMEM medium at a concentration of 0.5 mg/mL. The plate was incubated for 4 h at 37 °C. Next, to dissolve the formazan crystals, dimethyl sulfoxide was added. Thereafter, using an automatic plate reader, the absorbance was measured at 560 nm. Cell survival was expressed as a percentage of viable cells in the presence of peptides compared with control cells grown in their absence. The assay was repeated three times, and the results were averaged. Statistical significance was tested using multiple Student’s t-tests.
Here, the cytotoxicity of all the lipopeptides was investigated by MTT assays on L929 murine fibroblast cell lines. […] For all the lipopeptides, the cytotoxicity results were obtained after 48 h of cell culture.

[2] = test system: S. aureus NCDO 949; format: cell-based, Staphylococcus aureus; settings: NCDO 949, 24 h
Protocol: (§1) Antibacterial susceptibility testing was performed using a broth microdilution assay, against both Gram-negative and Gram-positive bacteria, as previously described by Kourmentza et al.[44] The target strains used were E. coli K-12, S. enterica NCTC 5188, and S. aureus NCDO 949. The test compounds were dissolved in water, filter-sterilized, and further diluted in Mueller-Hinton broth (MHB) which was used as the growth medium for the tests. 2-fold dilutions were performed, and 100 μL of each dilution was transferred to each well of 96-well plates. The final test concentration range of the compounds was 1.95–1000 μg/mL. Additionally, the 96-well plates contained wells with 200 μL of growth medium that served as sterility controls and wells filled with 100 μL of growth medium and 100 μL of inoculum that served as growth controls. The remaining wells were inoculated with 100 μL of a bacterial culture. The bacterial suspensions were prepared from overnight cultures in MHB. The bacterial density was adjusted to 0.5 McFarland (standard), and the suspensions were subsequently diluted 100 times using the growth medium. The 96-well plates were incubated at 37 °C for 24 h and the OD at 620 nm of the wells was assessed for growth. The MIC was defined as the lowest concentration of the antimicrobial agent tested that prevented any discernible growth after 24 h.
(§2) Since all the molecules are biocompatible at low concentrations, their antibacterial efficacy was examined in preliminary tests using a broth microdilution assay against both Gram-negative and Gram-positive bacteria. Here, E. coli K-12, S. enterica NCTC 5188 were cultured as Gram-negative bacteria and S. aureus NCDO 949 was used as a model Gram-positive bacterium. The lipopeptides were dissolved in water, filter-sterilized, and further diluted in Mueller-Hinton broth, which was used as the growth medium for the experiment to determine MIC values. […] E. coli was most susceptible to compounds P1 and P1D with MICs falling within the range of 15.63–31.25 μg/mL (Table 1). […] Overall, the P1 analogues have lower MIC values than those for the P2 analogues, especially for S. enterica.

[3] = test system: E. coli K-12; format: cell-based, Escherichia coli; settings: K-12, 24 h
Protocol: as §1, §2

[4] = SAXS of micelles, core-shell sphere form factor and hard sphere structure factor fit; format: physicochemical
Protocol: SAXS experiments were performed on beamline B21 at Diamond (Didcot, UK). The sample solutions were loaded into the 96-well plate of an EMBL BioSAXS robot and then injected via an automated sample exchanger into a quartz capillary (1.8 mm internal diameter) with the X-ray beam. The quartz capillary was enclosed in a vacuum chamber to avoid parasitic scattering. After the sample was injected into the capillary and reached the X-ray beam, the flow was stopped during SAXS data acquisition. Beamline B21 operates with a fixed camera length (3.9 m) and fixed energy (12.4 keV). The images were captured by using a PILATUS 2 M detector. Data processing was performed by using the dedicated beamline software ScÅtter.
More quantitative information about these self-assembled nanostructures was obtained from SAXS, also performed for 1 wt % aqueous solutions of the four lipopeptides. Consistent with cryo-TEM, the form factors for P1, P1D, P2, and P2D can be fitted based on the core–shell sphere structure corresponding to a hydrophobic core and peptide corona. The fit parameters listed in SI Table S1 show outer radii in the range (2.47–2.90 ± 0.4) nm, consistent with cryo-TEM. The inner core radius is 1.45–1.56 nm, which is consistent with the length of an extended C16 lipid chain plus the first hydrophobic amino acid (Y or W). […] The shell thickness may be compared to the length of a tripeptide in an extended structure (such as PPII), 3 × 0.31 nm = 0.93 nm (residue translation value taken from ref ([55])) and is in good agreement with this value for P1, P1D, and P2D. […] The form factor parameters are the same within uncertainties for the other three lipopeptides. The association number can be estimated for P1 (similar values are expected for P1D and P2D since the micelle radius and molecular volume are similar) using the volume of a micelle Vmic = 4/3π(2.52 nm)^3 = 67.0 nm^3, while the molecular volume Vmol = 0.62 nm^3 was obtained from the hydrophobicity surface/molecular volume calculation in UCSF Chimera.[56] This leads to an estimated association number p = Vmic/Vmol = (108 ± 20). […]

[5] = Critical aggregation concentration (CAC) by ANS fluorescence probe assay; format: physicochemical; settings: 2 × 10^–3 wt % ANS solution, λex = 356 nm, emission 486 nm, 25 °C, aqueous solution
Protocol: Fluorescence experiments were carried out using a Varian Cary Eclipse spectrofluorometer in 4 mm inner-width quartz cuvettes. Excitation and emission bandwidths of 2.5 nm were used as the experimental settings. The temperature was set at 25 °C for all of the experiments. The CAC value for all of the lipopeptides was assessed by fluorescence experiments with 8-anilo-1-naphthalenesulfonic acid (ANS). ANS is a suitable fluorophore to determine the CAC value, due to changes in local hydrophobicity.[43] For this assay, various concentrations of samples were prepared in 2 × 10^–3 wt % ANS solution. Fluorescence spectra were recorded from 400 to 670 nm with λex = 356 nm.
To determine the CAC value of individual lipopeptides, the results were plotted as I/I0 versus log(c/wt %), where I stands for the maximum fluorescence intensity of ANS containing the various concentrations of samples and I0 stands for the intensity for the control, i.e., ANS solution without lipopeptide.
To determine CAC values of these lipopeptides, fluorescence probe assays using ANS were performed.[43] Emission spectra of the four lipopeptides were collected at different concentrations after excitation at 356 nm. At higher concentrations, an emission peak at 486 nm is visible. […] The lower CAC values for P2 and P2D are due to the higher hydrophobicity of tryptophan than tyrosine.

[6] = test system: S. enterica NCTC 5188; assay: Antibacterial susceptibility, broth microdilution assay (MIC); format: cell-based, Salmonella enterica; settings: S. enterica NCTC 5188, broth microdilution in Mueller-Hinton broth, 37 °C, 24 h, OD 620 nm, test range 1.95–1000 μg/mL
Protocol: as §1, with “24 h. […]” for “24 h.”

[7] = 1 wt% sample at native pH = 4, core-shell sphere form factor

Row | SMILES | cell viability [1] [%] | MIC [2] [µg/mL] | MIC [3] [µg/mL] | lower range MIC value for E. coli as molar concentration [3] [µM] | Ri, micelle inner core radius [4, 7] [Å] | Ro, micelle outer radius [4, 7] [Å] | RHS, hard sphere radius ([4]; 1 wt% sample at native pH = 4, hard sphere structure factor) [Å] | CAC (concentration at the breakpoint of I/I0 at 486 nm vs concentration) [5] [wt %] | MIC [6] [µg/mL]
1 | CCCCCCCCCCCCCCCC(=O)N[C@@H](Cc1ccc(O)cc1)C(=O)N[C@H](CCCCN)C(=O)N[C@H](CCCCN)C(N)=O [P1D] (Palmitoyl-Tyr-[dK]-[dK]-NH2) | 44.1 ± 7.6 | 31.25 (≈ 46.3 µM) | 15.63 to 31.25 | 22 to 23 |  |  |  |  | 
2 | CCCCCCCCCCCCCCCC(=O)N[C@@H](Cc1ccc(O)cc1)C(=O)N[C@@H](CCCCN)C(=O)N[C@@H](CCCCN)C(N)=O [P1] (Palmitoyl-Tyr-Lys-Lys-NH2) | 53.1 ± 5.1 | 31.25 to 62.5 | 15.63 to 31.25 | 22 to 23 |  |  |  |  | 
3 | CCCCCCCCCCCCCCCC(=O)N[C@@H](Cc1c[nH]c2ccccc12)C(=O)N[C@H](CCCCN)C(=O)N[C@H](CCCCN)C(N)=O [P2D] (Palmitoyl-Trp-[dK]-[dK]-NH2) | 13.0 ± 1.1 | 31.25 to 62.5 | 31.25 to 62.5 |  | 15.1 | 26.3 | 79.3 | 0.00257 ± 0.05 | 62.5 (≈ 89.5 µM)
4 | CCCCCCCCCCCCCCCC(=O)N[C@@H](Cc1c[nH]c2ccccc12)C(=O)N[C@@H](CCCCN)C(=O)N[C@@H](CCCCN)C(N)=O [P2] (Palmitoyl-Trp-Lys-Lys-NH2) | 20.2 ± 2.8 | 31.25 to 62.5 | 15.63 to 62.5 | 22 to 23 |  |  |  |  | 62.5 to 250
